Experimental findings from patent US20210238162A1, “CHEMICAL COMPOUNDS” (GlaxoSmithKline Intellectual Property Development Limited, priority 2015, published 2021) are described below.

Each structure is given as a SMILES string. Where a name gives a salt, the structure may show the parent alone.

The first assay deals with T1, haematopoietic prostaglandin D synthase (H-PGDS) (Homo sapiens, UniProt O60760).
T1 construct: Full length human H-PGDS cDNA (Invitrogen Ultimate ORF IOH13026) was amplified by PCR; made in house; host or cells: E. coli BL21 (DE3*), vector pET22b+
T1 sequence (O60760 whole entry): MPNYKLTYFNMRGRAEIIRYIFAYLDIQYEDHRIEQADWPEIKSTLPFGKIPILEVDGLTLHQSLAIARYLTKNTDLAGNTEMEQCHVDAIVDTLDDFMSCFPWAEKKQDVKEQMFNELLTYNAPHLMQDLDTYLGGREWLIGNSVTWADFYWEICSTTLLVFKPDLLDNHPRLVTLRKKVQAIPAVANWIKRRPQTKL
The assay is described as follows: H-PGDS RapidFire High Throughput Mass Spectrometry Assay. The format is biochemical. The following applies: H-PGDS RapidFire MS assay, mean pIC50; read-out: Potency Range (mean pIC50) (converted). The method, boiled down:
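PGH2 (~10 μM burst) generated in situ from arachidonic acid by FLAG-tagged human COX-2 (Sf9-expressed), then converted to PGD2 by full-length human His-tagged H-PGDS from E. coli. PGD2 and PGF2α (substrate surrogate) quantified by RapidFire SPE-triple quadrupole MS; percent conversion calculated.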
Take `CC(C)(O)[C@H]1CC[C@H](NC(=O)c2cnc3cc(C(F)(F)F)ccc3c2)CC1` [Example 190, N-(trans-4-(2-Hydroxypropan-2-yl)cyclohexyl)-7-(trifluoromethyl)quinoline-3-carboxamide]: the IC50 is 100 to 1000 nM.

As for `CCOC(=O)c1coc(N2CC(NC(=O)c3cnc4cc(OC(F)F)c(F)cc4c3)C2)n1` [Example 82, Ethyl 2-(3-(7-(difluoromethoxy)-6-fluoroquinoline-3-carboxamido)azetidin-1-yl)oxazole-4-carboxylate], the IC50 was 10 to 79.4 nM.

`O=C(N[C@H]1CC[C@@H](N2CC(F)C2)CC1)c1cnc2cc(OC(F)F)c(F)cc2c1` [Example 89, 7-(Difluoromethoxy)-6-fluoro-N-(cis-4-(3-fluoroazetidin-1-yl)cyclohexyl)quinoline-3-carboxamide]: the IC50 is 100 to 1000 nM.

`C[C@@H](N[C@H]1CC[C@H](NC(=O)c2cnc3cc(OC(F)F)c(Cl)cc3c2)CC1)C(F)F` [Example 129, 6-Chloro-7-(difluoromethoxy)-N-(trans-4-(((R)-1,1-difluoropropan-2-yl)amino)cyclohexyl)quinoline-3-carboxamide]: the IC50 was < 10 nM.

In the case of `COc1ccc2cc(C(=O)NC3CCN(c4nnnn4C)CC3)cnc2c1OC` [Example 33, 7,8-Dimethoxy-N-(1-(1-methyl-1H-tetrazol-5-yl)piperidin-4-yl)quinoline-3-carboxamide], the IC50 was 10 to 79.4 nM.

As to `CC(C)(O)[C@H]1CC[C@H](NC(=O)c2cnc3c(Cl)c(OC(F)F)ccc3c2)CC1` [Example 216, 8-Chloro-7-(difluoromethoxy)-N-((trans)-4-(2-hydroxypropan-2-yl)cyclohexyl)quinoline-3-carboxamide], the IC50 is 10 to 79.4 nM.

In the case of `Cn1nnnc1N1CCC(NC(=O)c2cnc3cc(C4CC4)ccc3c2)CC1` [Example 44, 7-Cyclopropyl-N-(1-(1-methyl-1H-tetrazol-5-yl)piperidin-4-yl)quinoline-3-carboxamide], the IC50 was < 10 nM.

In the case of `COc1cc2ncc(C(=O)NC3CCN(c4nnnn4C)CC3)cc2cc1C#N` [Example 114, 6-Cyano-7-methoxy-N-(1-(1-methyl-1H-tetrazol-5-yl)piperidin-4-yl)quinoline-3-carboxamide], the IC50 was 100 to 1000 nM.

On to `O=C(N[C@H]1CCC[C@H]1O)c1cnc2cc(OC(F)F)c(F)cc2c1` [Example 52, 7-(Difluoromethoxy)-6-fluoro-N-((1S,2R)-2-hydroxycyclopentyl)quinoline-3-carboxamide], for which the IC50 is 100 to 1000 nM.

Take `O=C(N[C@H]1CC[C@H](N2CC(F)C2)CC1)c1cnc2cc(OC(F)F)c(F)cc2c1` [Example 90, 7-(Difluoromethoxy)-6-fluoro-N-(trans-4-(3-fluoroazetidin-1-yl)cyclohexyl)quinoline-3-carboxamide]: the IC50 is 10 to 79.4 nM.

Regarding `CC(N[C@H]1CC[C@H](NC(=O)c2cnc3cc(OC(F)F)c(F)cc3c2)CC1)C(F)F` (stereo partly drawn) [Example 67, 7-(Difluoromethoxy)-N-(trans-4-((1,1-difluoropropan-2-yl)amino)cyclohexyl)-6-fluoroquinoline-3-carboxamide], the IC50 was 10 to 79.4 nM.

With `CCOC(=O)c1cnc(N2CC[C@H](NC(=O)c3cnc4cc(OC(F)F)c(F)cc4c3)C2)o1` [Example 80, (S)-Ethyl 2-(3-(7-(difluoromethoxy)-6-fluoroquinoline-3-carboxamido)pyrrolidin-1-yl)oxazole-5-carboxylate trifluoroacetic acid salt], the IC50 is 10 to 79.4 nM.

Take `O=C(N[C@H]1CC[C@H](NCC(F)F)CC1)c1cnc2cc(OC(F)F)c(F)cc2c1` [Example 49, N-(trans-4-((2,2-Difluoroethyl)amino)cyclohexyl)-7-(difluoromethoxy)-6-fluoroquinoline-3-carboxamide]: the IC50 is 10 to 79.4 nM.

Take `CC(C)(O)C(=O)N1CCN(NC(=O)c2cnc3cc(OC(F)F)c(Cl)cc3c2)CC1` [Example 224, 6-Chloro-7-(difluoromethoxy)-N-(4-(2-hydroxy-2-methylpropanoyl)piperazin-1-yl)quinoline-3-carboxamide]: the IC50 is 10 to 79.4 nM.

For `O=C(NC1CCN(CC(F)(F)F)CC1)c1cnc2cc(OC(F)F)c(F)cc2c1` [Example 58, 7-(Difluoromethoxy)-6-fluoro-N-(1-(2,2,2-trifluoroethyl)piperidin-4-yl)quinoline-3-carboxamide], the IC50 is 10 to 79.4 nM.

`N#Cc1cnc(N2CCC(NC(=O)c3cnc4cc(OC(F)F)c(F)cc4c3)CC2)o1` [Example 97, N-(1-(5-Cyanooxazol-2-yl)piperidin-4-yl)-7-(difluoromethoxy)-6-fluoroquinoline-3-carboxamide]: the IC50 is 10 to 79.4 nM.

Turning to `O=C(N[C@H]1CCN(CC2CCCC2)C1=O)c1cnc2cc(OC(F)F)c(F)cc2c1` [Example 78, (S)—N-(1-(Cyclopentylmethyl)-2-oxopyrrolidin-3-yl)-7-(difluoromethoxy)-6-fluoroquinoline-3-carboxamide], the IC50 is 10 to 79.4 nM.

Regarding `O=C(N[C@H]1CCCNC1=O)c1cnc2cc(C3CC3)c(Cl)cc2c1` [Example 36, (S)-6-Chloro-7-cyclopropyl-N-(2-oxopiperidin-3-yl)quinoline-3-carboxamide hydrochloride], the IC50 was 10 to 79.4 nM.

Regarding `COc1c(Cl)ccc2cc(C(=O)NC3CCN(c4nnnn4C)CC3)cnc12` [Example 31, 7-Chloro-8-methoxy-N-(1-(1-methyl-1H-tetrazol-5-yl)piperidin-4-yl)quinoline-3-carboxamide], the IC50 is 100 to 1000 nM.

As for `N#Cc1cc2cc(C(=O)NC3CC(=O)Nc4ccccc43)cnc2cc1C1CC1` (stereo not shown) [Example 26, 6-Cyano-7-cyclopropyl-N-(2-oxo-1,2,3,4-tetrahydroquinolin-4-yl)quinoline-3-carboxamide], the IC50 is < 10 nM.

In the case of `NC(=O)CO[C@H]1CC[C@H](NC(=O)c2cnc3cc(OC(F)F)c(Cl)cc3c2)CC1` [Example 136, N-(trans-4-(2-Amino-2-oxoethoxy)cyclohexyl)-6-chloro-7-(difluoromethoxy)quinoline-3-carboxamide], the IC50 was < 10 nM.

Turning to `O=C(N[C@H]1CC[C@H](N2CC(F)C2)CC1)c1cnc2cc(OC(F)F)c(Cl)cc2c1` [Example 132, 6-Chloro-7-(difluoromethoxy)-N-(trans-4-(3-fluoroazetidin-1-yl)cyclohexyl)quinoline-3-carboxamide], the IC50 is < 10 nM.

For the compound `CC(C)(O)[C@H]1CC[C@H](NC(=O)c2cnc3c4c(ccc3c2)CCO4)CC1` [Example 113, N-(trans-4-(2-Hydroxypropan-2-yl)cyclohexyl)-2,3-dihydrofuro[3,2-h]quinoline-7-carboxamide], the IC50 was 10 to 79.4 nM.

Regarding `CC1(O)CC(NC(=O)c2cnc3cc(N4CCC4)c(Cl)cc3c2)C1` (stereo not shown) [Example 167, 7-(Azetidin-1-yl)-6-chloro-N-(3-hydroxy-3-methylcyclobutyl)quinoline-3-carboxamide trifluoroacetic Acid Salt], the IC50 is < 10 nM.

As to `O=C(N[C@H]1CONC1=O)c1cnc2cc(C3CC3)c(Cl)cc2c1` [Example 38, (S)-6-Chloro-7-cyclopropyl-N-(3-oxoisoxazolidin-4-yl)quinoline-3-carboxamide], the IC50 is < 10 nM.

For `CC(C)(O)[C@H]1CC[C@H](NC(=O)c2cnc3cc(OC(F)F)c(Cl)cc3c2)CC1` [Example 116, (6-Chloro-7-(difluoromethoxy)-N-(trans-4-(2-hydroxypropan-2-yl)cyclohexyl)quinoline-3-carboxamide, trifluoroacetate], the IC50 is < 10 nM.

Regarding `CC(C)(O)[C@H]1CC[C@H](NC(=O)c2cnc3cc(C4CCC4)ccc3c2)CC1` [Example 197, 7-Cyclobutyl-N-(trans-4-(2-hydroxypropan-2-yl)cyclohexyl)quinoline-3-carboxamide], the IC50 was 10 to 79.4 nM.

Take `O=C(N[C@H]1CCNC1=O)c1cnc2cc(OC(F)F)c(Br)cc2c1` [Example 154, (S)-6-Bromo-7-(difluoromethoxy)-N-(2-oxopyrrolidin-3-yl)quinoline-3-carboxamide]: the IC50 was < 10 nM.

As to `O=C1CC(NC(=O)c2cnc3cc(OC(F)F)c(Cl)cc3c2)C1` [Example 142, 6-Chloro-7-(difluoromethoxy)-N-(3-oxocyclobutyl)quinoline-3-carboxamide], the IC50 was 10 to 79.4 nM.

Consider `CC(C)(O)[C@H]1CC[C@H](NC(=O)c2cnc3cc(N)c(F)cc3c2)CC1` [Example 173, 7-Amino-6-fluoro-N-(trans-4-(2-hydroxypropan-2-yl)cyclohexyl)quinoline-3-carboxamide], for which the IC50 was 100 to 1000 nM.

`CC(C)(O)[C@H]1CC[C@H](NC(=O)c2cnc3cc(C4CC4(F)F)c(F)cc3c2)CC1` (stereo partly drawn) [Example 151, 7-(2,2-Difluorocyclopropyl)-6-fluoro-N-(trans-4-(2-hydroxypropan-2-yl)cyclohexyl)quinoline-3-carboxamide]: the IC50 was 10 to 79.4 nM.

Consider `Cc1ccc2cc(C(=O)N[C@H]3CC[C@H](C(C)(C)O)CC3)cnc2c1` [Example 186, N-(trans-4-(2-Hydroxypropan-2-yl)cyclohexyl)-7-methylquinoline-3-carboxamide], for which the IC50 is 100 to 1000 nM.

As to `CC(C)(O)[C@@H]1CC[C@@H](NC(=O)c2cnc3cc(OC(F)F)c(Cl)cc3c2)CO1` (racemic) [Example 124, Racemic 6-chloro-7-(difluoromethoxy)-N-((3r,6s)-6-(2-hydroxypropan-2-yl)tetrahydro-2H-pyran-3-yl)quinoline-3-carboxamide], the IC50 is < 10 nM.

`CC(O)(CO[C@H]1CC[C@H](NC(=O)c2cnc3cc(OC(F)F)ccc3c2)CC1)C(F)(F)F` (stereo partly drawn) [Example 19, 7-(Difluoromethoxy)-N-(trans-4-(3,3,3-trifluoro-2-hydroxy-2-methylpropoxy)cyclohexyl)quinoline-3-carboxamide]: the IC50 is 10 to 79.4 nM.

The assay is the same for the next values; noted with them: in at least one experimental run; read-out: H-PGDS pIC50 value (converted).
For the compound `O=C(N[C@H]1CCCNC1=O)c1cnc2cc(C3CC3)c(Cl)cc2c1` [Example 36, (S)-6-Chloro-7-cyclopropyl-N-(2-oxopiperidin-3-yl)quinoline-3-carboxamide hydrochloride], the IC50 is 15.8 nM.

Take `CC(C)(O)[C@H]1CC[C@H](NC(=O)c2cnc3cc(OC(F)F)c(Cl)cc3c2)CC1` [Example 116, (6-Chloro-7-(difluoromethoxy)-N-(trans-4-(2-hydroxypropan-2-yl)cyclohexyl)quinoline-3-carboxamide, trifluoroacetate]: the IC50 is 2.51 nM.

In the case of `O=C1CC(NC(=O)c2cnc3cc(OC(F)F)c(Cl)cc3c2)C1` [Example 142, 6-Chloro-7-(difluoromethoxy)-N-(3-oxocyclobutyl)quinoline-3-carboxamide], the IC50 was 39.8 nM.
